In patent US9474911B2, “Delivery of large molecular weight biologically active substances” (PhotoKinetix Holdings Inc., priority 2011, dated 2016):
Like-named read-outs stand apart in the source and are kept apart here.

Columns and labels:
[1] = 24 hours
[2] = 450 nm light pulsed at 100 cps; 24 hours; p<0.05
[3] = diabetic rats; photokinetic delivery (Kulp et al., 2010); cited from earlier work

HGH: Human growth hormone with a molecular weight of 22,124 Da
transdermal permeation flux of HGH, photokinetic compared to passive permeation ([1]; 350, 390, 405 and 450 nm at 24 cps, donor 270 ng/ml, p<0.001): significantly increased

Hyaluronic acid [2,100 kDa hyaluronic acid]
transdermal flux rate, photokinetic compared to passive permeation control ([1]; 390, 405 and 450 nm at 24 cps and 405 nm at 100 cps, p<0.05): significantly higher than passive permeation control samples
transdermal flux rate, 24 cps compared to 100 cps ([1]; 390 nm, 405 nm and 436 nm light, p<0.05): significantly higher than 390 nm, 405 nm, and 436 nm light pulsed at 100 cps

Hyaluronic acid [69 kDa hyaluronic acid]
intradermal deposition, photokinetic compared to passive control [2]: significantly higher intradermal deposition
transdermal flux rate, 24 cps compared to 100 cps ([1]; 405 nm light, p<0.05): significantly higher than 405 nm light pulsed at 100 cps
transdermal flux rate, photokinetic compared to passive permeation [1]: significantly higher than passive permeation

insulin: insulin, molecular weight of about 5,730 Da
blood sugar levels [3]: blood sugar levels were reduced
